“And” between values parts separate entries of the source, which are not always exact repeats. Equal values may be shown once.
Key:
[1] = tested on: HEK cells stably expressing αS-A53T-YFP; assay: HEK cells treated with 5th cycle PMCA samples (ProteoStat, confocal); format: cell-based, human
Method: To further validate that NS132 generates fiber incompetent structures from the fibers-catalyzed aggregation, we utilized HEK cells that stably express αS-A53T-YFP[24],[51]–[54]. The solutions of αS aggregation in the absence and presence of NS132 from the 5th cycle of PMCA (2 μM in monomeric αS, ±NS132) were introduced to the HEK cells in the presence of Lipofectamine 3000 for 24 h. In contrast to the control (no fibers) (Fig. 3i, control), we observed a significant number of inclusions of αS-A53T-YFP protein in the presence of αS fibers (Fig. 3i, αS, white arrows). […] In contrast, in the presence of the PMCA assay sample from the 5th cycle ( + NS132), there was a significant reduction in the number of αS-A53T-YFP inclusions (Fig. 3i, +NS132). The ProteoStat intensity of inclusions in HEK cells treated with the PMCA sample from cycle five was ~2–3 fold higher than the control condition (no fibers) (Fig. 3j, black). […]
This assay was performed based on a previous protocol with slight modifications. […] The resulting cell pellets were then homogenized, transferred into an autoclaved 1.7 mL microcentrifuge tube, and counted to normalize the data. […] The cell solution was homogenized and equally aliquoted into the desired number of wells in a Costar 96-well flat black plate and fluorescence was measured (λex = 550 nm, λem = 600 nm) on an Infinite M200 Pro Plate Reader. […]

[2] = Parallel artificial membrane permeability assay (PAMPA); format: in vitro ADME
Method: The permeability of various ligands was assessed with a PAMPA kit (BioAssay Systems, Hayward, CA) according to a previously described protocol. Briefly, 4% lecithin solution (LS) was prepared in dodecane and 5 µL was applied to the donor plate membrane. Then, 300 μL PBS was added to the acceptor plate. Subsequently, 200 µL of ligand solutions (500 μM) and various permeability standards (high, medium, and low, 500 μM) were added to the donor plate membrane. The donor plate was placed in the acceptor plate and incubated at r.t. for 18 h. The solutions were then moved from the acceptor plate into a clear-bottom 96-well plate (Corning Inc., Corning, NY) and absorbance was recorded at 360 nm for various ligands and 275 nm for permeability standards. The permeability was calculated using Eq. (1) below, where the permeability rate, C, equals 7.72 × 10^–6, ODA is the absorbance of the acceptor solution, and ODE is the absorbance of the equilibrium standard.1 Pe=C×−ln1−ODA/ODEcm/s

Papp at 18 h, 500 μM ([2]; PAMPA, 500 μM in donor, 18 h, r.t., unit from Eq. 1, read-out: PAMPA permeability (Pe), individual trials): 2.92 ×10⁻⁶ cm/s
Structure (SMILES): Cc1ccc(NC(=O)c2ccc(NC(=O)c3ccc([N+](=O)[O-])c(NCCc4c[nH]c5ccccc45)n3)c(NCC3CCCCC3)n2)c(OCC(=O)O)n1 [NS132]
ProteoStat dye intensity (raw), individual experiments ([1]; HEK cells + fifth cycle PMCA sample (2 μM αS in monomer) with NS132): 1001 and 1176 and 997 and 1009 and 1031 and 978 and 1091 and 1123 and 1010 and 1092 and 1179
ProteoStat intensity of inclusions, in words ([1]; PMCA sample from cycle five in the presence of NS132): significantly lower
cell permeability (PAMPA), comparison in words [2]: lower in comparison to the PAMPA medium standard
PAMPA permeability (Pe), individual trials ([2]; 500 μM in donor, 18 h, r.t., unit from Eq. 1): 2.69e-06 cm/s and 2.41e-06 cm/s and 2.71e-06 cm/s and 2.89e-06 cm/s

From publication PMC11061149, “Protein mimetic 2D FAST rescues alpha synuclein aggregation mediated early and post disease Parkinson’s phenotypes” (Nature Communications, 2024)
